In brackets after ≈: the same amount, converted by molar mass.
What was measured:
Experiment in all cases: MIC, broth two-fold serial dilution test
[1] = system: Staphylococcus aureus (SAUR); assay type: cell-based, gram positive, ATCC 6538; conditions: Staphylococcus aureus (G+); M9G (minimal salts media with glucose); read-out: minimum inhibitory concentration (MIC), SAUR
Method: (§1) Biocidal evaluations (bactericidal, algicidal, and fungicidal) were carried out.
(§2) A minimum inhibitory concentration (MIC) value is obtained using a broth, two-fold serial dilution test performed as follows: A stock solution or dispersion of the test compound, typically at a concentration of 1%, is made in a 5:3:2 solvent solution of acetone, methanol, and water. A volume of the stock solution is dispensed into culture media to give an initial starting test concentration of 500 ppm compound.
(§3) When the test is ready to be done, each vessel in the dilution series, except the first vessel, contains an equal volume of compound free broth. The first vessel contains twice the volume of broth with the starting concentration of test compound. One half of the broth from the first vessel is transferred to the second vessel. After being mixed, one half the resulting volume is removed from the second vessel and transferred to the third vessel. The entire cycle is repeated sufficiently to give a series of concentrations amounting to 500, 250, 125, 63, 31, 16, 8, and 4 ppm (or 100, 50, 25, 12.5, 6.2, 3.1, 1.6, and 0.8), respectively.
(§4) Each vessel is then inoculated with a cell suspension of the appropriate test organism. Bacteria are grown in broth, fungi on agar slants for a time and at a temperature appropriate to the species being tested, and algae are a mixture of green algae and blue-green bacteria grown in a nutrient media. At the end of the growth period, in the case of bacteria, the broth is vortexed to disperse the cells.
(§5) The vessels are then incubated at the appropriate temperature. After the incubation, the vessels are examined for growth/no growth. The minimum inhibitory concentration (MIC) is defined as the lowest concentration of compound that results in complete inhibition of growth of the test organism.
Staphylococcus aureus (SAUR), gram positive
(§6) These compounds were tested in M9G
(§7) (minimal salts media with glucose)
2. Staphylococcus aureus (+)

[2] = system: Aspergillus niger (ANIG); assay type: cell-based, ATCC 6275; conditions: Aspergillus niger (F); M9G (minimal salts media with glucose); read-out: minimum inhibitory concentration (MIC), ANIG
Method: as §1, §2, §3, §4
(§8) In the case of fungi, the spores are harvested by pipetting water onto the slant and dislodging the spores with a sterile loop. The cell/spore suspension is standardized by controlling incubation time, temperature, and the volume of the diluent. The suspension is then used to inoculate the vessels containing the broth compound.
as §5, §6, §7

[3] = system: Pseudomonas fluorescens (PSFL); assay type: cell-based, gram negative, ATCC 948; conditions: Pseudomonas fluorescens (G-); M9G (minimal salts media with glucose); read-out: minimum inhibitory concentration (MIC), PSFL
Method: as §1, §2, §3, §4, §5
Pseudomonas fluorescens (PSFL), gram negative
as §6, §7
4. Pseudomonas fluorescens (-)

[4] = system: Pseudomonas aerugenosa (PSAE); assay type: cell-based, gram negative, ATCC 15442; conditions: Pseudomonas aeruginosa (G-); M9G (minimal salts media with glucose); read-out: minimum inhibitory concentration (MIC), PSAE
Method: as §1, §2, §3, §4, §5
Pseudomonas aerugenosa (PSAE), gram negative
as §6, §7
1. Pseudomonas aeruginosa (-)

[5] = system: Escherichia coli (ECOL); assay type: cell-based, gram negative, ATCC 11229; conditions: Escherichia coli (G-); M9G (minimal salts media with glucose); read-out: minimum inhibitory concentration (MIC), ECOL
Method: as §1, §2, §3, §4, §5
Escherichia coli (ECOL), gram negative
as §6, §7

[6] = system: Aureobasidium pullulans (APUL); assay type: cell-based, ATCC 9348; conditions: Aureobasidium pullulans (F); M9G (minimal salts media with glucose); read-out: minimum inhibitory concentration (MIC), APUL
Method: as §1, §2, §3, §4, §8, §5
Aureobasidium pullulans (APUL)
as §6, §7
6. Aureobasidium pullulans

[7] = system: ALGAE; assay type: cell-based, mixture of green algae and blue-green bacteria; conditions: green algae and blue-green bacteria; culture in Allen's medium; read-out: minimum inhibitory concentration (MIC), ALGAE
Method: as §1, §2, §3
Each vessel is then inoculated with a cell suspension of the appropriate test organism. […]

O=C(O)CNC(=O)OCC#CI [Compound 1, N-iodopropargyloxycarbonyl glycine]
MIC [1]: 250 µg/mL | MIC [2]: > 500 µg/mL | MIC [3]: 250 µg/mL | MIC [4]: > 500 µg/mL | MIC [5]: 250 µg/mL | MIC [6]: > 500 µg/mL

COC(=O)CNC(=O)OCC#CI [Compound 2, N-iodopropargyloxycarbonyl glycine methyl ester]
MIC [1]: 16 µg/mL | MIC [2]: < 4 µg/mL | MIC [3]: 16 µg/mL | MIC [4]: 32 µg/mL | MIC [5]: 32 µg/mL | MIC [6]: < 4 µg/mL

CCCCCCCCOC(=O)CNC(=O)OCC#CI [Compound 3, N-Iodopropargyloxycarbonyl glycine n-octyl ester]
MIC [1]: 8 µg/mL | MIC [2]: < 4 µg/mL | MIC [3]: 8 µg/mL | MIC [4]: > 500 µg/mL | MIC [5]: > 500 µg/mL | MIC [6]: < 4 µg/mL

O=C(CNC(=O)OCC#CI)OCC#CI [Compound 4, N-iodopropargyloxycarbonyl glycine iodopropargyl ester]
MIC [1]: 32 µg/mL | MIC [2]: < 0.12 µg/mL | MIC [3]: 32 µg/mL | MIC [7]: 12.5 µg/mL (≈ 28 µM) | MIC [4]: 125 µg/mL | MIC [5]: 125 µg/mL | MIC [6]: < 0.12 µg/mL

C[C@H](NC(=O)OCC#CI)C(=O)O [Compound 5, N-iodopropargyloxycarbonyl alanine]
MIC [1]: 250 µg/mL | MIC [2]: 125 µg/mL | MIC [3]: 125 µg/mL | MIC [4]: > 500 µg/mL | MIC [5]: 125 µg/mL | MIC [6]: 32 µg/mL

COC(=O)[C@H](C)NC(=O)OCC#CI [Compound 6, N-iodopropargyloxycarbonyl alanine methyl ester]
MIC [1]: 16 µg/mL | MIC [2]: < 4 µg/mL | MIC [3]: < 4 µg/mL | MIC [4]: 32 µg/mL | MIC [5]: < 4 µg/mL | MIC [6]: < 4 µg/mL

CCCCCCCCOC(=O)[C@H](C)NC(=O)OCC#CI [Compound 7, N-iodopropargyloxycarbonyl alanine n-octyl ester]
MIC [1]: 63 µg/mL | MIC [2]: < 4 µg/mL | MIC [3]: 8 µg/mL | MIC [4]: 125 µg/mL | MIC [5]: < 4 µg/mL | MIC [6]: < 63 µg/mL

O=C(N[C@@H](Cc1ccccc1)C(=O)O)OCC#CI [Compound 8, N-iodopropargyloxycarbonyl phenylalanine]
MIC [1]: 125 µg/mL | MIC [2]: 250 µg/mL | MIC [3]: 63 µg/mL | MIC [4]: 250 µg/mL | MIC [5]: < 4 µg/mL | MIC [6]: 250 µg/mL

COC(=O)[C@H](Cc1ccccc1)NC(=O)OCC#CI [Compound 9, N-iodopropargyloxycarbonyl phenylalanine methyl ester]
MIC [1]: 125 µg/mL | MIC [2]: < 4 µg/mL | MIC [3]: 125 µg/mL | MIC [4]: > 500 µg/mL | MIC [5]: > 500 µg/mL | MIC [6]: < 4 µg/mL

CCCCCCCCOC(=O)[C@H](Cc1ccccc1)NC(=O)OCC#CI [Compound 10, N-iodopropargyloxycarbonyl phenylalanine n-octyl ester]
MIC [1]: 32 µg/mL | MIC [2]: 125 µg/mL | MIC [3]: 32 µg/mL | MIC [4]: 63 µg/mL | MIC [5]: < 4 µg/mL | MIC [6]: 125 µg/mL

— patent US5209930A, “Preparation and use of N-iodopropargyl oxycarbonyl amino acid esters and derivatives as antimicrobial agents” (Rohm and Haas Company, priority 1990, dated 1993)
